What all share (assay type): cell-based, Periplaneta americana
The test system of test [1] is cockroach Dorsal Unpaired Median (DUM) neurons. Briefly: Whole-cell patch-clamp, voltage-clamp: neonicotinoïd-induced inward currents. The note with it: for inward current amplitude after pretreatment with low concentration of IR3535 (conclusion): DUM neurons pretreated with low concentration of IR3535; for induced inward current, insecticide alone (conclusion): act like agonists. The method, then:
(§1) Experiments were carried out on cockroach Dorsal Unpaired Median (DUM) neurons. Cockroach neuronal preparations are commonly used as biomedical models for vertebrates and invertebrates and DUM neurons are, furthermore, electrophysiologically and pharmacologically well characterized since most of the biophysical and pharmacological properties of ionic currents and receptors underlying and modulating their spontaneous action potentials have been established by using the well-known patch-clamp technique.
(§2) Adult male cockroaches, Periplaneta americana (see FIG. 1), are taken from our laboratory colonies, which are maintained under standard conditions (29° C., photoperiod of 12 h light/12 h dark). Animals are immobilized dorsal-side up on a dissection dish. The dorsal cuticle, gut and some dorso-longitudinal muscles are removed to allow access to the ventral nerve cord. The abdominal nerve cord and its terminal abdominal ganglion (TAG), carefully dissected under a binocular microscope, are placed in normal saline. Animal care and handling procedures are in accordance with French institutional and national health guidelines.
The ventral nerve cord and its terminal abdominal ganglion (TAG) are carefully dissected under a binocular microscope and placed in normal cockroach saline containing (in mM) 200 NaCl, 3.1 KCl, 5 CaCl2, 4 MgCl2, 50 sucrose, and 10 […] (HEPES); pH was adjusted to 7.4 with NaOH. Isolation of adult DUM neuron cell bodies are performed under sterile conditions using enzymatic digestion and mechanical dissociation of the median parts of the TAG as previously described in Lapied et al. (Ionic species involved in the electrical activity of single adult aminergic neurones isolated from sixth abdominal ganglion of cockroach Periplaneta americana J Exp Biol 144:535-49, 1989). The isolated neuron cell bodies are used for recordings 24 h after dissociation.
Electrical activity and neonicotinoïd-induced inward currents are recorded using the patch clamp technique in the whole-cell recording configuration under current-clamp and voltage-clamp mode, respectively. Patch-clamp electrodes are pulled from borosilicate glass capillary tubes (GC150T-10) using a P-97 model puller. Patch pipettes have resistances ranging from 1 to 1.2 MΩ when filled with internal pipette solution. The liquid junction potential between extracellular and intracellular solutions is always corrected before the formation of a giga Ohm seal (>3 GΩ). Signals are recorded with an Axopatch 200A amplifier. […] Under voltage-clamp conditions, DUM neuron somata are voltage-clamped at a steady state holding potential of −50 mV to measure the effects of thiamethoxam or thiacloprid applied alone and after pretreatment with IR3535® (10^−8 M). Experiments are carried out at room temperature.
On the technique in general: In patch-clamp work, channel activity is measured electrically.

Test [2] shares this test system. The note with it: for origin of the intracellular calcium concentration rise: with caffeine, omegaconotoxin, pirenzepine.
Test [3] shares this test system. In words: Whole-cell patch-clamp, current-clamp: DUM neuron spontaneous electrical activity. As to conditions: IR3535 at 10^-8 M; whole-cell configuration. The method, then:
as §1
as §2, with “guidelines. […]” for “guidelines.”
Electrical activity and neonicotinoïd-induced inward currents are recorded using the patch clamp technique in the whole-cell recording configuration under current-clamp and voltage-clamp mode, respectively. […] Signals are recorded with an Axopatch 200A amplifier. […]

[4] abbreviates: thiamethoxam 10^-6 M, pretreated with IR3535 10^-8 M.

Read-outs that look alike come from different tables or passages of the source.

For the compound `CN1COCN(Cc2cnc(Cl)s2)/C1=N\[N+](=O)[O-]` [thiamethoxam], in test [1] (10^-6 M alone, holding potential -50 mV, n=3-4), the “induced inward current, applied alone” value was “inward current with small amplitudes”. For the same compound, the “inward current amplitude after pretreatment with low concentration of IR3535 (conclusion)” value in test [1] is given as “more important”. Besides, the “induced inward current, insecticide alone (conclusion)” value in test [1] (alone) is recorded as “inward current with a small amplitude”. Also, in test [1] (setting [4]), the “effect of IR3535 pretreatment on induced inward current amplitude” value was “important increase of the thiamethoxam-induced inward current amplitude” and the “mean current amplitude after IR3535 pretreatment relative to applied alone” value is “about 6 fold”.

For `CCN(CC)C(=O)c1cccc(C)c1` [DEET, N,N-diethyl-3-methylbenzamide], in test [2] (DEET at 10^-7 M (maximum)), the “ratio of emitted fluorescence (340 nm/380 nm), maximum value” is given as 0.7. In test [2] (DEET between 3.10^-8 M and 3.10^-7 M), the “ratio of emitted fluorescence (340 nm/380 nm)” value was “above 0.6”. In test [2] (DEET from 10^-9 M to 10^-7 M), the “effect on intracellular calcium concentration, low concentration range” value was “elevation of the intracellular calcium concentration”. For the same compound, in test [2] (DEET higher than 10^-7 M), the “effect on intracellular calcium concentration, higher concentrations” value is on record as “important decrease of the intracellular calcium concentration”. Further, in test [2] (DEET low concentration range), the “concentration giving the maximum elevation of intracellular calcium concentration” value was 10^−7 M.

For `CCCCN(CCC(=O)OCC)C(C)=O` [IR3535®, 3-[N-Butyl-N-acetyl]-aminopropionic acid, ethyl ester], the “lower concentration which produces a significant elevation of intracellular calcium concentration” value in test [2] (DUM neurons) is 10^−8 M. Further, the “origin of the intracellular calcium concentration rise” value in test [2] (IR3535 at 10^-8 M) was “extracellular calcium through plasma membrane voltage-dependent calcium channels via M1/M3 mAChR sub-type modulation”; in test [2] (higher concentrations of IR3535 (10^-5 M)), “both extracellular calcium and calcium released from internal stores”. Besides, the “effect on intracellular calcium concentration, zone I” value in test [2] (IR3535 between 3.10^-9 M and 3.10^-8 M, bath application) is “transient increase of intracellular calcium concentration”. Further, the “effect on intracellular calcium concentration, zone II” value in test [2] (IR3535 from 10^-7 M to 3.10^-6 M) is “additional elevation of intracellular calcium concentration”. In test [2] (zone I (3.10^-9 M to 3.10^-8 M)), the “concentration giving the maximum of the zone I intracellular calcium increase” value is on record as 10^−8 M. In addition, the “concentration giving the maximum effect on intracellular calcium, zone III” value in test [2] (zone III, very high concentration) is given as 3.10^−5 M. In test [3], the “effect on membrane potential” value is “significant membrane depolarization”. The “effect on spontaneous action potential discharge frequency” value in test [3] was “increase of the spontaneous action potential discharge frequency”.

As for `N#C/N=C1\SCCN1Cc1ccc(Cl)nc1` [thiacloprid], the “concentration giving the maximum increase of inward current amplitude after IR3535 pretreatment” value in test [1] (DUM neuron pretreated with IR3535 10^-8 M) is 10^−6 M. For the same compound, the “inward current amplitude after pretreatment with low concentration of IR3535 (conclusion)” value in test [1] was “more important”. In addition, the “induced inward current, insecticide alone (conclusion)” value in test [1] (alone) is listed as “inward current with a small amplitude”. For the same compound, the “concentration giving the maximum effect on inward current amplitude, applied alone” value in test [1] (alone, holding potential -50 mV) is on record as 10^−3 M. Further, the “effect on inward current amplitude, applied alone” value in test [1] (bath application alone, holding potential -50 mV) is reported as “dose-dependent increase of the inward current amplitude”. Besides, the “effect on inward current amplitude at higher concentration after IR3535 pretreatment” value in test [1] (thiacloprid 10^-5 M, pretreated with IR3535 10^-8 M) was “important decrease of the current amplitude”.

Values taken from patent US10492491B2, “Insecticide composition including a synergistic agent” (priority 2015, dated 2019).
